Some results are limits rather than exact numbers.

A word on the EC50: it is the midpoint of the concentration-response curve.

One experiment concerns ATF4 luciferase reporter (human full-length ATF4 5'-UTR fused to firefly luciferase) in HEK293T cells. Briefly: ATF4-Luc assay (in vitro model of VWMD): HEK293T cells carrying ATF4 luciferase reporter, tunicamycin-treated. The experiment is classed as cell-based. The following applies: 1 μg/mL tunicamycin, 7 hours, One Glo luminescence. As to the method: In order to test exemplary compounds of the invention in a cellular context, a stable VWMD cell line was first constructed. The ATF4 reporter was prepared by fusing the human full-length ATF4 5′-UTR (NCBI Accession No. BC022088.2) in front of the firefly luciferase (FLuc) coding sequence lacking the initiator methionine as described in Sidrauski et al (eLife 2013). The construct was used to produce recombinant retroviruses using standard methods and the resulting viral supernatant was used to transduce HEK293T cells, which were then subsequently selected with puromycin to generate a stable cell line.
HEK293T cells carrying the ATF4 luciferase reporter were plated on polylysine coated 384-well plates (Greiner Bio-one) at 30,000 cells per well. Cells were treated the next day with 1 μg/mL tunicamycin and 200 nM of a compound of Formula (I) for 7 hours. Luminescence was measured using One Glo (Promega) as specified by the manufacturer. Cells were maintained in DMEM with L-glutamine supplemented with 10% heat-inactivated FBS (Gibco) and Antibiotic-Antimycotic solution (Gibco).
Table 2 below summarizes the EC50 data obtained using the ATF4-Luc assay for exemplary compounds of the invention.
Background: In a reporter assay the amount or activity of a reporter protein is the signal.
With `O=C(COc1ccc(Cl)c(F)c1)NC12CC(NC(=O)C3CNc4cc(Cl)ccc4O3)(C1)C2` (single isomer, unassigned) [Compound 103], the half-maximal effective concentration (EC50) was below 0.01 µM.

Staying with this experiment, now noted: Homo sapiens, HEK-293T, 1 μg/mL tunicamycin, 7 hours, One Glo luminescence.
With `O=C(COc1ccc(Cl)c(F)c1)N[C@H]1C[C@H]2C[C@@H]1C[C@@H]2NC(=O)[C@H]1CC(=O)c2cc(Cl)ccc2O1` (mixture of isomers) [Compound 368, (2R)-6-chloro-N-{(1RS,2SR,4RS,5SR)-5-[2-(4-chloro-3-fluorophenoxy)acetamido]bicyclo[2.2.1]heptan-2-yl}-4-oxo-3,4-dihydro-2H-1-benzopyran-2-carboxamide], the concentration for a half-maximal effect (EC50) is below 0.01 µM.

In the case of `O=C(COc1ccc(Cl)c(F)c1)NC12CC(NC(=O)[C@@H]3C[C@H](O)c4cc(Cl)ccc4O3)(C1)C2` (racemic) [Compound 190, rac-(2R,4R)-6-chloro-N-{3-[2-(4-chloro-3-fluorophenoxy)acetamido]bicyclo[1.1.1]pentan-1-yl}-4-hydroxy-3,4-dihydro-2H-1-benzopyran-2-carboxamide], the EC50 is below 0.01 µM.

For `O=C(COc1ccc(Cl)c(F)c1)NC12CC(NC(=O)C3CC(N[C@H]4C[C@@H](O)C4)c4cc(Cl)ccc4O3)(C1)C2` (mixture of isomers) [Compound 209, 6-chloro-N-{3-[2-(4-chloro-3-fluorophenoxy)acetamido]bicyclo[1.1.1]pentan-1-yl}-4-{[(1s,3s)-3-hydroxycyclobutyl]amino}-3,4-dihydro-2H-1-benzopyran-2-carboxamide], the EC50 fell in the range of 0.05 to 0.25 µM.

Turning to `O=C(NC12CC(NC(=O)[C@H]3C[C@@H](O)c4cc(Cl)ccc4O3)(C1)C2)c1cnc(C(F)F)cn1` (racemic) [Compound 218, N-(3-{[rac-(2R,4R)-6-chloro-4-hydroxy-3,4-dihydro-2H-1-benzopyran-2-carbonyl]amino}bicyclo[1.1.1]pentan-1-yl)-5-(difluoromethyl)pyrazine-2-carboxamide], the EC50 lay within 0.01 to 0.05 µM.

In the case of `O=C(COc1ccc(Cl)c(F)c1)NC12CC(NC(=O)[C@H]3C[C@@H](O)c4cc(Cl)c(F)cc4O3)(C1)C2` (racemic) [Compound 234, rac-(2R,4R)-6-chloro-N-{3-[2-(4-chloro-3-fluorophenoxy)acetamido]bicyclo[1.1.1]pentan-1-yl}-7-fluoro-4-hydroxy-3,4-dihydro-2H-1-benzopyran-2-carboxamide], the EC50 is below 0.01 µM.

For `O=C(COc1ccc(Cl)c(F)c1)NC12CC(NC(=O)[C@H]3C[C@@H](O)c4cc(F)c(F)cc4O3)(C1)C2` (racemic) [Compound 249, rac-(2R,4R)—N-{3-[2-(4-chloro-3-fluorophenoxy)acetamido]bicyclo[1.1.1]pentan-1-yl}-6,7-difluoro-4-hydroxy-3,4-dihydro-2H-1-benzopyran-2-carboxamide], the EC50 is below 0.01 µM.

As to `C[C@]1(C(=O)NC23CC(NC(=O)COc4ccc(Cl)c(F)c4)(C2)C3)C[C@H](O)c2cc(Cl)ccc2O1` (racemic) [Compound 250, rac-(2R,4S)-6-chloro-N-{3-[2-(4-chloro-3-fluorophenoxy)acetamido]bicyclo[1.1.1]pentan-1-yl}-4-hydroxy-2-methyl-3,4-dihydro-2H-1-benzopyran-2-carboxamide], the 50% effective concentration (EC50) was in the range of 0.05 to 0.25 µM.

Turning to `C[C@]1(C(=O)NC23CC(NC(=O)COc4ccc(Cl)c(F)c4)(C2)C3)C[C@@H](O)c2cc(Cl)ccc2O1` (racemic) [Compound 251, rac-(2R,4R)-6-chloro-N-{3-[2-(4-chloro-3-fluorophenoxy)acetamido]bicyclo[1.1.1]pentan-1-yl}-4-hydroxy-2-methyl-3,4-dihydro-2H-1-benzopyran-2-carboxamide], the EC50 lay in the range of 0.01 to 0.05 µM.

Consider `O=C(NC12CCC(NC(=O)[C@H]3C[C@@H](O)c4cc(Cl)ccc4O3)(C1)C2)c1ccc(OC(F)(F)F)cn1` (racemic) [Compound 293, N-(4-{[rac-(2R,4R)-6-chloro-4-hydroxy-3,4-dihydro-2H-1-benzopyran-2-carbonyl]amino}bicyclo[2.1.1]hexan-1-yl)-5-(trifluoromethoxy)pyridine-2-carboxamide], for which the EC50 was 0.01 to 0.05 µM.

`O=C(COc1ccc(Cl)c(F)c1)NC12CCC(NC(=O)[C@H]3C[C@@H](O)c4cc(Cl)ccc4O3)(C1)C2` (racemic) [Compound 296, rac-(2R,4R)-6-chloro-N-{4-[2-(4-chloro-3-fluorophenoxy)acetamido]bicyclo[2.1.1]hexan-1-yl}-4-hydroxy-3,4-dihydro-2H-1-benzopyran-2-carboxamide]: the half-maximal effective concentration (EC50) was below 0.01 µM.

In the case of `O=C(COc1ccc(Cl)c(F)c1)NC12CC(NC(=O)[C@H]3C[C@H](NCCO)c4cc(Cl)ccc4O3)(C1)C2` (racemic) [Compound 301, rac-(2R,4S)-6-chloro-N-{3-[2-(4-chloro-3-fluorophenoxy)acetamido]bicyclo[1.1.1]pentan-1-yl}-4-[(2-hydroxyethyl)amino]-3,4-dihydro-2H-1-benzopyran-2-carboxamide], the EC50 was below 0.01 µM.

For `O=C(NC12CCC(NC(=O)[C@H]3C[C@@H](O)c4cc(Cl)ccc4O3)(CC1)CC2)c1cnc(C(F)F)cn1` (racemic) [Compound 302, N-(4-{[rac-(2R,4R)-6-chloro-4-hydroxy-3,4-dihydro-2H-1-benzopyran-2-carbonyl]amino}bicyclo[2.2.2]octan-1-yl)-5-(difluoromethyl)pyrazine-2-carboxamide], the EC50 is 0.05 to 0.25 µM.

`COc1ccc2c(n1)[C@H](O)C[C@H](C(=O)NC13CC(NC(=O)COc4ccc(Cl)c(F)c4)(C1)C3)O2` (racemic) [Compound 334, rac-(2R,4R)—N-{3-[2-(4-chloro-3-fluorophenoxy)acetamido]bicyclo[1.1.1]pentan-1-yl}-4-hydroxy-6-methoxy-3,4-dihydro-2H-pyrano[3,2-b]pyridine-2-carboxamide]: the concentration giving a half-maximal response (EC50) lay in the range of 0.05 to 0.25 µM.

For `CO[C@@H]1C[C@H](C(=O)NC23CC(NC(=O)COc4ccc(Cl)c(F)c4)(C2)C3)Oc2ccc(Cl)cc21` (racemic) [Compound 340, rac-(2R,4R)-6-chloro-N-{3-[2-(4-chloro-3-fluorophenoxy)acetamido]bicyclo[1.1.1]pentan-1-yl}-4-methoxy-3,4-dihydro-2H-1-benzopyran-2-carboxamide], the EC50 was below 0.01 µM.

Consider `O=C(COc1ccc(Cl)c(F)c1)NC12CC(NC(=O)[C@H]3C[C@H](NC4(CO)CC4)c4cc(Cl)ccc4O3)(C1)C2` (racemic) [Compound 343, rac-(2R,4S)-6-chloro-N-{3-[2-(4-chloro-3-fluorophenoxy)acetamido]bicyclo[1.1.1]pentan-1-yl}-4-{[1-(hydroxymethyl)cyclopropyl]amino}-3,4-dihydro-2H-1-benzopyran-2-carboxamide], for which the 50% effective concentration (EC50) is 0.01 to 0.05 µM.

Regarding `O=C(COc1ccc(Cl)c(F)c1)NC12CCC(NC(=O)[C@H]3C[C@@H](O)c4cc(Cl)ccc4O3)(CC1)NC2=O` (racemic) [Compound 364, rac-(2R,4R)-6-chloro-N-{4-[2-(4-chloro-3-fluorophenoxy)acetamido]-3-oxo-2-azabicyclo[2.2.2]octan-1-yl}-4-hydroxy-3,4-dihydro-2H-1-benzopyran-2-carboxamide], the 50% effective concentration (EC50) is below 0.01 µM.

Turning to `O=C(COc1ccc(Cl)c(F)c1)N[C@@H]1C[C@@H]2O[C@H]1C[C@H]2NC(=O)[C@@H]1C[C@@H](O)c2cc(Cl)ccc2O1` (racemic) [Compound 369, (2S,4R)-6-chloro-N-{(1RS,2SR,4RS,5SR)-5-[2-(4-chloro-3-fluorophenoxy)acetamido]-7-oxabicyclo[2.2.1]heptan-2-yl}-4-hydroxy-3,4-dihydro-2H-1-benzopyran-2-carboxamide], the concentration for a half-maximal effect (EC50) lay within 0.01 to 0.05 µM.

For the compound `O=C(COc1ccc(Cl)c(F)c1)N[C@@H]1C[C@@H]2O[C@H]1C[C@H]2NC(=O)[C@H]1C[C@@H](O)c2cc(Cl)ccc2O1` (racemic) [Compound 370, (2R,4R)-6-chloro-N-{(1RS,2SR,4RS,5SR)-5-[2-(4-chloro-3-fluorophenoxy)acetamido]-7-oxabicyclo[2.2.1]heptan-2-yl}-4-hydroxy-3,4-dihydro-2H-1-benzopyran-2-carboxamide], the 50% effective concentration (EC50) is below 0.01 µM.

Consider `O=C(COc1ccc(Cl)c(F)c1)N[C@@H]1C[C@@H]2C[C@H]1C[C@H]2NC(=O)[C@H]1C[C@@H](O)c2cc(Cl)ccc2O1` (racemic) [Compound 371, (2R,4R)-6-chloro-N-{(1RS,2SR,4RS,5SR)-5-[2-(4-chloro-3-fluorophenoxy)acetamido]bicyclo[2.2.1]heptan-2-yl}-4-hydroxy-3,4-dihydro-2H-1-benzopyran-2-carboxamide], for which the half-maximal effective concentration (EC50) was below 0.01 µM.

With `O=C(COc1ccc(Cl)c(F)c1)N[C@@H]1C[C@@H]2O[C@H]1C[C@H]2NC(=O)[C@@H]1C[C@H](O)c2cc(Cl)ccc2O1` (racemic) [Compound 372, (2S,4S)-6-chloro-N-{(1RS,2SR,4RS,5SR)-5-[2-(4-chloro-3-fluorophenoxy)acetamido]-7-oxabicyclo[2.2.1]heptan-2-yl}-4-hydroxy-3,4-dihydro-2H-1-benzopyran-2-carboxamide], the 50% effective concentration (EC50) was 0.01 to 0.05 µM.

In the case of `O=C(COc1ccc(Cl)c(F)c1)NC12CC(NC(=O)C3CNc4cc(Cl)ccc4O3)(C1)C2` (single isomer, unassigned) [Compound 102], the 50% effective concentration (EC50) is below 0.01 µM.

With `CN1CC(C(=O)NC23CC(NC(=O)COc4ccc(Cl)c(F)c4)(C2)C3)Oc2ccc(Cl)cc21` (single isomer, unassigned) [Compound 104], the concentration giving a half-maximal response (EC50) was below 0.01 µM.

Regarding `O=C(COc1ccc(Cl)c(F)c1)NC12CC(NC(=O)[C@@H]3C[C@H](O)c4cc(F)c(Cl)cc4O3)(C1)C2` (single isomer, unassigned) [Compound 205], the EC50 was below 0.01 µM.
